Assay results taken from publication PMC10641236, “Influenza A virus replication has a stronger dependency on Raf/MEK/ERK signaling pathway activity than SARS-CoV-2” (Frontiers in Cellular and Infection Microbiology, 2023).
Where two headings read alike, the source gives them in different places.

Tests used:
[1] = system: MEK1/2 (ERK1/2 phosphorylation); test: IC50 determination in the absence of viral infection, TNF-α-stimulated cells, pERK/ERK ratio by WES; assay type: cell-based; conditions: Homo sapiens, TNF-α 30 min then 1 h treatment, no virus
Procedure: Cells were lysed using cold modified RIPA buffer [0.24% (w/v) tris base (Sigma-Aldrich, St. Louis, Missouri, USA), 0.88% (w/v) NaCl (Carl Roth, Karlsruhe, Germany), 0.2% (v/v) 500 mM ethylenediaminetetraacetic acid (EDTA) (Sigma-Aldrich, St. Louis, Missouri, USA), 1% (v/v) Triton X-100 (Sigma-Aldrich, St. Louis, Missouri, USA), 0.5% (w/v) sodium deoxycholate (Sigma-Aldrich, St. Louis, Missouri, USA), 0.1% (w/v) sodium dodecyl sulfate (SDS) (Carl Roth, Karlsruhe, Germany), 10% (v/v) glycerol (Carl Roth, Karlsruhe, Germany), 0.05% phenylmethylsulfonyl fluoride (PMSF) (Carl Roth, Karlsruhe, Germany), 0.01% Benzonase® Nuclease (Sigma-Aldrich, St. Louis, Missouri, USA), protease inhibitor cocktail (Roche, Basel, Switzerland), and phosphatase inhibitor cocktail (Roche, Basel, Switzerland) in water]. Determination of the protein concentration was performed using the Pierce™ BCA Protein Assay Kit (Thermo Fisher Scientific Inc., Waltham, MA, USA) according to the manufacturer’s instructions. The samples were analyzed by Wes™ using a total protein concentration of 0.25–0.5 µg/µL for each sample, the Jess/Wes Separation kit (12–230 kDa), primary antibodies against ERK1/2, p44/42 MAPK (137F5) Rabbit mAb (Cell Signaling Technology, Danvers, MA, USA, Cat. No. 4695S) and phospho-ERK1/2 (pERK1/2), Phospho-p44/42 MAPK (Erk1/2) (Thr202/Tyr204) (D13.14.4E), XP® Rabbit mAb (Cell Signaling Technology, Danvers, MA, USA, Cat. no. 4370S) in a 1:50 dilution, anti-Influenza A virus Nucleoprotein (NP) antibody (rabbit MAb) (Sino Biological, Beijing, China Cat.no 40208-R010) in a 1:150 dilution, SARS-CoV-2 nucleocapsid protein antibody (ProSci Inc., Poway, CA, USA, Cat. no. 35-580) in a 1:100 dilution, the anti-goat, anti-rabbit, and anti-mouse detection modules, and the EZ Standard Pack 1 (12–230 kDa), according to the manufacturer’s instructions. Analysis of the obtained data was performed using the Compass for SW 4.1.0 software, Microsoft Excel, and the GraphPad Prism 9.2.0 software. Ratios were calculated from the area under the curve of the respective detected signals.
Twenty-four hours before the experiment, the growth medium was exchanged to medium with respective FBS or BSA concentration. Then, cells were stimulated by the addition of tumor necrosis factor alpha (TNF-α) (Sigma-Aldrich, St. Louis, Missouri, USA) for 30 min at 37°C, 5% CO2, followed by treatment with different zapnometinib concentrations and a DMSO (solvent) control for 1 h. For determination of the IC50 value in cells infected with IAV PR8 or SARS-CoV-2, cells were infected with the respective virus and treated with zapnometinib for 24 h as described in the “Virus yield reduction assay” section. After incubation, cell lysates were prepared, and the samples were analyzed by WES™ as described in the “Preparation of cell lysates and WES™ analysis” section. The pERK/ERK ratio was calculated and normalized to the solvent control. IC50 values were determined using the “log(inhibitor) vs. response -Variable slope (four parameters)” equation in GraphPad Prism version 9.4.0.

[2] = system: IAV PR8; test: Virus yield reduction assay, IAV PR8 (virus titer by RT-qPCR); assay type: cell-based, Influenza A virus, strain: A/Puerto Rico/8/1934 (H1N1); conditions: 0.2% BSA; for reduction of the virus titer: Calu-3 and Caco-2 cells, 24 h
Procedure: Calu-3 and Caco-2 cells were seeded in 24-well plates (Greiner Bio-One GmbH, Frickenhausen, Germany) and grown to 90% confluence. The cells were washed once with infection medium [IMDM supplemented with 0.2% bovine serum albumin (BSA) (Carl Roth GmbH + Co. KG, Karlsruhe, Germany) and 1% penicillin–streptomycin] prior to infection with a multiplicity of infection (MOI) of 0.01 of IAV PR8 or SARS-CoV-2 for 1 h in 200 µL of infection medium per well. Afterwards, the virus inoculum was removed completely, and the cells were washed once with infection medium and then treated with 1 mL per well of different concentrations of zapnometinib in infection medium with 1% dimethyl sulfoxide (DMSO) (Merck Millipore, Burlington, MA, USA) for 24 h at 37°C, 5% CO2. Supernatants were harvested and stored at −80°C for subsequent determination of virus titer and EC50 value. Cell lysates were prepared as described in the “Preparation of cell lysates and WES™ analysis” section for WES™ analysis.
The viral titers of IAV and SARS-CoV-2 viruses were determined using a real-time one-step multiplex RT-qPCR method. Briefly, viral nucleic acid extraction was performed using a QIAamp Viral RNA Mini Kit (Qiagen, Venlo, Netherlands) according to the manufacturer’s instructions. A TaqMan-based RT-qPCR assay was carried out using a QuantiNova Pathogen kit (Qiagen, Venlo, Netherlands) with specific primers targeting the SARS-CoV-2 N gene (2019-CoV2-N1F: […], 2019-CoV2-N1R: […], 2019-CoV2-N1P [6FAM]: […] [BHQ1]) and M gene for IAV according to the WHO guidelines. The viral genome copies per mL (gc/mL) were determined based on a standard curve prepared with 10-fold serial dilutions of the target gene. For quality control, nuclease-free water was included in each set of extractions as a negative control to monitor any possible cross-contamination. Moreover, an artificial exogenous QuantiNova RNA internal control (Qiagen, Venlo, Netherlands) was included during the nucleic acid purification to monitor the RNA purification efficiency and the RT-PCR amplification. A Rotor-Gene Q™ Real-Time PCR detection system (Qiagen, Venlo, Netherlands) was used for amplification, and the data were analyzed using Q-Rex software (Qiagen, Venlo, Netherlands).
For EC50 determination, a virus yield reduction assay was performed. The virus titer in the cell culture supernatant was determined and normalized to the solvent control. The EC50 value was determined using the “log(inhibitor) vs. normalized response - Variable slope” equation in GraphPad Prism version 9.4.0.

[3] = system: IAV Fukui; set-up: method as in Laure et al., 2020; conditions: medium containing 0.2% BSA, ref Laure et al., 2020; cited from earlier work

## O=C(O)c1ccc(F)c(F)c1Nc1ccc(I)cc1Cl [zapnometinib, 2-(2-chloro-4-iodophenylamino)-N-3,4-difluoro benzoic acid]
[1]; Caco-2, Caco-2 cells, 0% FBS
  IC50: 0.04 µM
[1]; Caco-2, Caco-2 cells, 0.2% BSA
  IC50: 4.32 µM
[1]; Caco-2, Caco-2 cells, 5% FBS
  IC50: 4.46 µM
[1]; Caco-2, Caco-2 cells, 10% FBS
  IC50: 9.15 µM
[1]; Calu-3, Calu-3 cells, 0% FBS
  IC50: 0.06 µM
[1]; Calu-3, Calu-3 cells, 0.2% BSA
  IC50: 5.33 µM
[1]; Calu-3, Calu-3 cells, 5% FBS
  IC50: 6.64 µM
[1]; Calu-3, Calu-3 cells, 10% FBS
  IC50: 8.25 µM
[2]; 12.5 µM
  reduction of the virus titer: ≥ 50%
[2]; 25 µM
  reduction of the virus titer: ≥ 50%
[2]; 100 µM
  reduction of the virus titer: > 90%
[2]; Caco-2 cells, MOI 0.01, 24 h, read-out: EC50 value against IAV PR8
  EC50: 5.72 µM
[2]; Calu-3 cells, MOI 0.01, 24 h, read-out: EC50 value against IAV PR8
  EC50: 7.13 µM
[2]; Influenza A virus, PR8, Caco-2, 24 h, Caco-2 cells, MOI 0.01, 24 h, read-out: EC50 value against IAV PR8
  EC50: 5.72 µM
[2]; Influenza A virus, PR8, Calu-3, 24 h, Calu-3 cells, MOI 0.01, 24 h, read-out: EC50 value against IAV PR8
  EC50: 7.13 µM
[2]; Influenza A virus, PR8, summary for Calu-3 and Caco-2 cells, read-out: EC50 values for IAV PR8 in both cell lines
  EC50: < 10 µM
[3]
  EC50: 4.5 µM
